Literature values, collected in patent US20140023728A1, “Iodine Liquid Soap, Dispenser and Method” (priority 2012, published 2014).
Read-outs that look alike come from different tables or passages of the source.

For `II` [Elemental iodine, iodine], the “volume of water in which one gram dissolves” value (one gram in water at 20 degrees Celsius) is given as 3450 mL and the “volume of water in which one gram dissolves” value (one gram in water at 50 degrees Celsius) is given as 1280 mL.
